Series [1] in a line: Cytotoxic / cytostatic activity (general statement). To be noted: in words.
Series [2] has as its system E. coli DC 2. The series can be described thus: Minimal inhibitory concentration, broth-dilution test. It is filed as cell-based. Conditions: Escherichia coli, DC2. An excerpt: (§1) The antibacterial activity of 31668P and 31668U as Minimum Inhibitory Concentration values required to inhibit the growth of various bacteria are shown in Table 1.
(§2) Minimal inhibitory concentrations of the anitbiotics 31668P and
(§3) 31668U determined by the broth-dilution tests against selected
(§4) strains of bacteria (microgram per ml)

Series [3] relates to E. coli TEM. The description is as above. It is filed as cell-based. Conditions: Escherichia coli, read-out: Minimal inhibitory concentration.
Text: as §1, §2, §3, §4

Series [4] relates to Staph. aureus 503. Described as above. The class given is cell-based. Conditions: Staphylococcus aureus.
Text: as §1, §2, §3, §4

Series [5] relates to Saim. typhimurium. Described as above. It is filed as cell-based.
Text: as §1, §2, §3, §4

Series [6] has as its system Pseud. aeruginosa 1592 E. The description is as above. The class given is cell-based. To be noted: Pseudomonas aeruginosa.
Text: as §1, §2, §3, §4

Series [7] relates to Pseud. aeruginosa ATCC 9027. The series is described as above. It is filed as cell-based. Conditions: Pseudomonas aeruginosa, ATCC9027.
Text: as §1, §2, §3, §4

Series [8] has as its system Strept. pyogenes 308 A. The description is as above. It is filed as cell-based. Conditions: Streptococcus pyogenes.
Text: as §1, §2, §3, §4

In series [9] the test system is Pseud. aeruginosa 1771 M. The description is as above. Conditions: Pseudomonas aeruginosa. It is filed as cell-based.
Text: as §1, §2, §3, §4

Series [10] has as its system E. coli 078. The description is as above. The class given is cell-based. To be noted: Escherichia coli.
Text: as §1, §2, §3, §4

Series [11] concerns Enterobact. cloacae P 99. The series is described as above. It is filed as cell-based. To be noted: read-out: Minimal inhibitory concentration.
Text: as §1, §2, §3, §4

The subject of series [12] is Staph. aureus 285. The series is described as above. The class given is cell-based. To be noted: Staphylococcus aureus.
Text: as §1, §2, §3, §4

For series [13], the system named is Staph. aureus SG 511. The series is described as above. It is filed as cell-based. To be noted: Staphylococcus aureus, SG511.
Text: as §1, §2, §3, §4

Series [14] deals with Klebs. spec. 1522 E. The series is described as above. The class given is cell-based. To be noted: read-out: Minimal inhibitory concentration.
Text: as §1, §2, §3, §4

Series [15] has as its system Klebs. spec. 1082E (K-1). Described as above. It is filed as cell-based.
Text: as §1, §2, §3, §4

Series [16] has as its system Pseud. aeruginosa 1771. Described as above. It is filed as cell-based. To be noted: Pseudomonas aeruginosa.
Text: as §1, §2, §3, §4

For series [17], the system named is E. coli 1507 E. The series is described as above. To be noted: Escherichia coli, read-out: Minimal inhibitory concentration. It is filed as cell-based.
Text: as §1, §2, §3, §4

The test system of series [18] is Strept. faecium D. The series is described as above. It is filed as cell-based. To be noted: Enterococcus faecium.
Text: as §1, §2, §3, §4

Series [19] deals with E. coli DC 0. The description is as above. It is filed as cell-based. Conditions: Escherichia coli, DC0.
Text: as §1, §2, §3, §4

For series [20], the system named is Enterobact. cloacae 1321 E. The description is as above. The class given is cell-based.
Text: as §1, §2, §3, §4

Series [21] deals with Strept. pyogenes 77 A. The description is as above. It is filed as cell-based. Conditions: Streptococcus pyogenes.
Text: as §1, §2, §3, §4

Series [22] has as its system gram-positive and gram-negative bacteria. The series can be described thus: Antibacterial activity (general statement). It is filed as cell-based. Conditions: in words.

The record followed here is patent US5459141A, “Compounds 31668P and 31668U, a process for their production and their use” (Hoechst Aktiengesellschaft, priority 1992, dated 1995).

Each structure is given as a SMILES string. “Also recorded” adds a separate entry of the source. Where two headings read alike, the source gives them in different places.

`COC1=C(C)C(=O)C2=C(C1=O)C(CO)[N+]1=CC3CC4C(C1C2N1CCOC41)N3C` (centres unmarked) [Compound 31668U]: in series [1], the “cytotoxic activity / cytostatic effect” value is listed as “cytotoxic activity; also recorded: cytostatic effect”. The MIC is 0.781 µg/mL in series [2]; 1.56 µg/mL in [3]; < 0.002 µg/mL in series [4]; 3.13 µg/mL in series [5]; 6.25 µg/mL in [6]; 6.25 µg/mL in [7]. Besides, the MIC in [8] is < 0.002 µg/mL; in series [9], 1.56 µg/mL; in series [10] it was 0.195 µg/mL; in series [11], 1.56 µg/mL; in series [12], < 0.002 µg/mL; in [13], < 0.002 µg/mL. In addition, the MIC is 1.56 µg/mL in [14]; 0.781 µg/mL in series [15]; 12.5 µg/mL in series [16]; 3.13 µg/mL in series [17] (E. coli 1507 E); 0.195 µg/mL in series [18]; 6.25 µg/mL in series [19]. The values for the MIC in series [20] and in series [21] were 0.195 µg/mL and < 0.002 µg/mL, respectively. Moreover, the “antibacterial / antibiotic activity” value in [22] was “active against a large number of both gram-positive and gram-negative bacteria; also recorded: have an antibiotic activity”.

As for `COc1c(C)c(O)c2c(c1O)C(CO)[N+]1=CC3CC4C(C1C2N1CCOC41)N3C` (centres unmarked) [Compound 31668P], the “cytotoxic activity / cytostatic effect” value in [1] is “cytotoxic activity; also recorded: cytostatic effect”. In addition, the MIC is 0.195 µg/mL in series [2]; 0.195 µg/mL in [3]; < 0.002 µg/mL in series [4]; 0.391 µg/mL in [5]; 0.781 µg/mL in [6]; 0.781 µg/mL in series [7]. Besides, the MIC in series [8] is < 0.002 µg/mL; in [9] it was 0.391 µg/mL; in series [10], 0.049 µg/mL; in series [11] it was 0.195 µg/mL; in series [12] it was < 0.002 µg/mL; in [13], < 0.002 µg/mL. The MIC came to 0.391 µg/mL in series [14] (Klebs. spec. 1522 E); 0.391 µg/mL in series [15]; 1.56 µg/mL in [16]; 0.195 µg/mL in [17] (1507E); 0.025 µg/mL in series [18]; 0.781 µg/mL in series [19]. Also, the MIC in [20] was 0.098 µg/mL; in [21], < 0.002 µg/mL. Moreover, the “antibacterial / antibiotic activity” value in series [22] is “active against a large number of both gram-positive and gram-negative bacteria; also recorded: have an antibiotic activity”.
